Measured values reported in US8067042B1 (Mutual Pharmaceutical Company, Inc., priority 2007, dated 2011).
Several values for one entry are separate records, joined by “and”; a condition that tells them apart may be missing. Equal entries are not always repeated. Where two headings read alike, the source gives them in different places.

Columns and labels:
[1] = biological target: CYP3A4 (Homo sapiens, UniProt P08684); assay type: in vitro ADME; conditions: 50 μM megestrol acetate, microsomes, ketoconazole
Sequence of CYP3A4 (P08684 whole entry): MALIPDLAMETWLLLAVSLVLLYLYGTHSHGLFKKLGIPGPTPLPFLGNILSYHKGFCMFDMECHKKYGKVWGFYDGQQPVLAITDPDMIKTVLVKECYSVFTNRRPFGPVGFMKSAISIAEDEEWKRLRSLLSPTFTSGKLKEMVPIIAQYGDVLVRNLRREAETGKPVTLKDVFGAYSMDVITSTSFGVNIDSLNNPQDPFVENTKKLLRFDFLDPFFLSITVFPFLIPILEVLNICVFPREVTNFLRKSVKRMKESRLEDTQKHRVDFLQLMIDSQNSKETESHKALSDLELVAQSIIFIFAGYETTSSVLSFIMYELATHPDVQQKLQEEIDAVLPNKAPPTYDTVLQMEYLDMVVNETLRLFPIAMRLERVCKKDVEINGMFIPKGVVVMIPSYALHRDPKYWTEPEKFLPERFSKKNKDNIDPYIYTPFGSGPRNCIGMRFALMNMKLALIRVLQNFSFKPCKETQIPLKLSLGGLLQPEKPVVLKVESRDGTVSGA

[2] = biological target: Human CYP2C9*1 (Arg144) + P450 Reductase + Cytochrome b5 SUPERSOMES (Homo sapiens, UniProt P11712)
Experimental: (§1) In this study, individual CYP isoforms expressed from human cDNA and P450 reductase cDNA were used (BD SUPERSOMES™ Enzymes, BD Biosciences Discovery Labware, Woburn, Mass.). SUPERSOMES™ are microsomes from baculovirus-infected insect cells containing singly expressed recombinant human CYP enzymes.
(§2) After a 5-minute preincubation, an appropriate amount of the appropriate buffer was added to the reaction mixtures to make the final volume of 0.5 mL. The incubations were continued for 60 minutes.
(§3) All incubation reactions were terminated by adding 0.5 mL methanol, and the samples were transferred to cryovials and stored at −70±10° C. until analysis.

[3] = biological target: Human CYP2D6*1 + P450 Reductase SUPERSOMES (Homo sapiens, UniProt P10635)
Experimental: as §1, §2, §3

[4] = biological target: T1, Human CYP2B6 + P450 Reductase + Cytochrome b5 SUPERSOMES (Homo sapiens, UniProt P20813)
T1 sequence (P20813 1-491): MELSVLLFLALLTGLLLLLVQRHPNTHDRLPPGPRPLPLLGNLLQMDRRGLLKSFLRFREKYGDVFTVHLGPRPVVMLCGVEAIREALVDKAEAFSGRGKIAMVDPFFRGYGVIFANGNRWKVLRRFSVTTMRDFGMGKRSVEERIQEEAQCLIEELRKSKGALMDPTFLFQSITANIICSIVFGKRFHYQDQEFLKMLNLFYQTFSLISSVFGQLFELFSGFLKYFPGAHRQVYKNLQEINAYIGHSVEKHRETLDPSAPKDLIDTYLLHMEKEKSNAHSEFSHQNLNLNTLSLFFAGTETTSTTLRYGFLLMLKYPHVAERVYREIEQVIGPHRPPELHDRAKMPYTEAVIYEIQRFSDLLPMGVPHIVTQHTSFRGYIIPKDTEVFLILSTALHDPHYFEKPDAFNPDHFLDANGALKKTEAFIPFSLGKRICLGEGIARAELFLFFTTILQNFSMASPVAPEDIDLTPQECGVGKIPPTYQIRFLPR
Experimental: as §1, §2, §3

[5] = biological target: T2, Human CYP1A2 + P450 Reductase SUPERSOMES (Homo sapiens, UniProt P05177)
T2 sequence (P05177 2-516 limits assumed): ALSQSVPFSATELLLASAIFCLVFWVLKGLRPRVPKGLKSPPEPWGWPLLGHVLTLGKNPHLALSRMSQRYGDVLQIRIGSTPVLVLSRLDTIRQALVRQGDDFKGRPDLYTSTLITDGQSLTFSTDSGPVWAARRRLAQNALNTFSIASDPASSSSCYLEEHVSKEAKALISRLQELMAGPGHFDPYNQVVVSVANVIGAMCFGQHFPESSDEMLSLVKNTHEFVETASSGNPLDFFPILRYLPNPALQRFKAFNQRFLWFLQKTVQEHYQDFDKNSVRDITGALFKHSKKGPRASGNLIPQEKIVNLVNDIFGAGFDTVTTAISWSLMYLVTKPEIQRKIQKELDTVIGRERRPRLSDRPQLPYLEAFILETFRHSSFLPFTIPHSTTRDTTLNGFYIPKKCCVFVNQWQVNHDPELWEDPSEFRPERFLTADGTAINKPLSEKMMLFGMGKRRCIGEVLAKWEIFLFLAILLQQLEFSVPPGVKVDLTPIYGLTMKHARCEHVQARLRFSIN
Experimental: as §1, §2, §3

[6] = biological target: CYP2D6 (Homo sapiens, UniProt P10635); assay type: in vitro ADME; conditions: 50 μM megestrol acetate, microsomes
Sequence of CYP2D6 (P10635 whole entry): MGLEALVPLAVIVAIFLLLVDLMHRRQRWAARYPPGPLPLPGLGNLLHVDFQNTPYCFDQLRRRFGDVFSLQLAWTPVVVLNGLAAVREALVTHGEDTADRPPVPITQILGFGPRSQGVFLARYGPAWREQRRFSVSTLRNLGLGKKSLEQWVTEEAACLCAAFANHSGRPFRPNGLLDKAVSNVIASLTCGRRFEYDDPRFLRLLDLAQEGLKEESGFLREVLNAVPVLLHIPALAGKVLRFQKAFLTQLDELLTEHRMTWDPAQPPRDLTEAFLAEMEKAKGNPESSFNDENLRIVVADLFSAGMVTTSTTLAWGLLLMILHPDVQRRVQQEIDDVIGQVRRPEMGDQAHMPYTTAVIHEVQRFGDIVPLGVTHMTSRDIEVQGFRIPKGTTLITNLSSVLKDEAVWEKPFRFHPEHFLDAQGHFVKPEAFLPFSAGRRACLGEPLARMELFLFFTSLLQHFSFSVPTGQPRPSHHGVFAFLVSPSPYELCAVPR

[7] = biological target: CYP2C19 (Homo sapiens, UniProt P33261)
Sequence of CYP2C19 (P33261 whole entry): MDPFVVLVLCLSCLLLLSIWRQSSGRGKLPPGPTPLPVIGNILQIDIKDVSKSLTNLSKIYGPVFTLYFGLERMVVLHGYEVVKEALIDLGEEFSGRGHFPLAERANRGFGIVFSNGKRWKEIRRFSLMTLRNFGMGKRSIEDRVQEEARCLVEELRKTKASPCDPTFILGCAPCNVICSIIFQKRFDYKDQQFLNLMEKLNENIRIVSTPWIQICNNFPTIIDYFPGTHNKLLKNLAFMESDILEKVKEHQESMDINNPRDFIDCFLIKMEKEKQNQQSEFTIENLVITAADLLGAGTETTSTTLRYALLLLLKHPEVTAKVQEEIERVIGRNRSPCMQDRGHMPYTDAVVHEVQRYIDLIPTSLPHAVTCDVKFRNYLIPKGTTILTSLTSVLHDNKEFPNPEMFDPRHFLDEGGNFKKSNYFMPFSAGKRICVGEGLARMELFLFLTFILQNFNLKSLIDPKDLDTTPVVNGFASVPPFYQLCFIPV
Experimental: The stock solutions were added to incubation mixtures to obtain the final concentrations of 5 and 50 μM, each containing 1% acetonitrile.
Microsomes were prepared by differential centrifugation of liver homogenates pooled from at least ten human donors.
After a 5 minute preincubation, nicotinamide adenine dinucleotide phosphate (NADPH) regenerating system (NRS; 1.7 mg/mL β-NADP, 7.8 mg/mL glucose-6-phosphate, and 6 units/mL glucose-6-phosphate dehydrogenase in 2% sodium bicarbonate solution) was added to initiate the reaction. The final incubation volume was 0.5 mL. Incubations were continued for 60 minutes.
All incubations were conducted at 37±1° C. in a shaking water bath. All incubations were carried out in triplicates.
After a 5-minute preincubation, 2% sodium bicarbonate solution was added to the incubation mixtures. The final incubation volume was 0.5 mL. Incubations were continued for 60 minutes.
Incubation reactions, including the matrix controls and metabolic negative controls, were terminated by adding 0.5 mL methanol.
The samples were analyzed on a Supelcosil LC-18 column (3μ, 120 Å, 3.0×100 mm).

[8] = 5 μM, 5 pmol enzyme, listed as megestrol acetate
[9] = 5 μM, 20 pmol enzyme, listed as megestrol acetate
[10] = 50 μM, 5 pmol enzyme, listed as megestrol acetate
[11] = 50 μM, 20 pmol enzyme, listed as megestrol acetate

Structure (SMILES): CC(=O)O[C@]1(C(C)=O)CC[C@H]2[C@@H]3C=C(C)C4=CC(=O)CC[C@]4(C)[C@H]3CC[C@@]21C [Megestrol Acetate, 17 α-acetyloxy-6-methylpregna-4,6-diene-3,20-dione]
- difference in metabolism in the presence or absence of the inhibitor (LC/MS) [1]: a significant difference in metabolism
- Individual Raw Data Observed ([2]; 5 μM, 5 pmol enzyme): 2.098 µM and 2.127 µM and 2.133 µM
- Percent of Parent Disappearance Individual ([2]; 5 μM, 5 pmol enzyme): 3.68% and 2.33% and 2.08%
- Percent of Parent Disappearance Mean ± SD ([2]; 5 μM, 5 pmol enzyme): 2.70 ± 0.860%
- Percent of Parent Disappearance Mean ± SD [2, 8]: 2.70±0.860%
- Individual Raw Data Observed ([2]; 5 μM, 20 pmol enzyme): 2.314 µM and 2.379 µM and 2.134 µM
- Percent of Parent Disappearance Individual ([2]; 5 μM, 20 pmol enzyme): 9.53% and 6.99% and 16.6%
- Percent of Parent Disappearance Mean ± SD ([2]; 5 μM, 20 pmol enzyme): 11.0 ± 4.96%
- Percent of Parent Disappearance Mean ± SD [2, 9]: 11.0±4.96%
- Individual Raw Data Observed ([2]; 50 μM, 5 pmol enzyme): 20.38 µM and 20.18 µM and 20.9 µM
- Percent of Parent Disappearance Individual ([2]; 50 μM, 5 pmol enzyme): 21.5% and 22.2% and 19.5%
- Percent of Parent Disappearance Mean ± SD ([2]; 50 μM, 5 pmol enzyme): 21.0 ± 1.43%
- Percent of Parent Disappearance Mean ± SD [2, 10]: 21.0±1.43%
- Individual Raw Data Observed ([2]; 50 μM, 20 pmol enzyme): 24.33 µM and 21.36 µM and 25.28 µM
- Percent of Parent Disappearance Individual ([2]; 50 μM, 20 pmol enzyme): −1.60% and 10.8% and −5.60%
- Percent of Parent Disappearance Mean ± SD ([2]; 50 μM, 20 pmol enzyme): 1.19 ± 8.54%
- Percent of Parent Disappearance Mean ± SD [2, 11]: 1.19±8.54%
- Individual Raw Data Observed ([3]; 5 μM, 5 pmol enzyme): 1.94 µM and 2.747 µM and 2.056 µM
- Percent of Parent Disappearance Mean ± SD ([3]; 5 μM, 5 pmol enzyme): −13.6 ± 022.0%
- Percent of Parent Disappearance Mean ± SD [3, 8]: no substrate disappearance was detected
- Individual Raw Data Observed ([3]; 5 μM, 20 pmol enzyme): 2.325 µM and 2.386 µM and 2.39 µM
- Percent of Parent Disappearance Individual ([3]; 5 μM, 20 pmol enzyme): 4.68% and 2.15% and 2.01%
- Percent of Parent Disappearance Mean ± SD ([3]; 5 μM, 20 pmol enzyme): 2.95 ± 1.50%
- Percent of Parent Disappearance Mean ± SD [3, 9]: 2.95±2.46%
- Individual Raw Data Observed ([3]; 50 μM, 5 pmol enzyme): 18.2 µM and 22.44 µM and 18.03 µM
- Percent of Parent Disappearance Individual ([3]; 50 μM, 5 pmol enzyme): −3.00% and −27.0% and −2.03%
- Percent of Parent Disappearance Mean ± SD [3, 10]: no substrate disappearance was detected
- Individual Raw Data Observed ([3]; 50 μM, 20 pmol enzyme): 12.44 µM and 13.43 µM and 12.62 µM
- Percent of Parent Disappearance Individual ([3]; 50 μM, 20 pmol enzyme): 1.88% and −5.91% and 0.449%
- Percent of Parent Disappearance Mean ± SD ([3]; 50 μM, 20 pmol enzyme): −1.19 ± 04.14%
- Percent of Parent Disappearance Mean ± SD [3, 11]: no substrate disappearance was detected
- Individual Raw Data Observed ([4]; 5 μM, 5 pmol enzyme): 2.221 µM and 2.3 µM and 2.31 µM
- Percent of Parent Disappearance Individual ([4]; 5 μM, 5 pmol enzyme): −0.459% and −4.00% and −4.49%
- Percent of Parent Disappearance Mean ± SD ([4]; 5 μM, 5 pmol enzyme): −2.98 ± 2.20%
- Percent of Parent Disappearance Mean ± SD [4, 8]: 2.98±2.20%
- Individual Raw Data Observed ([4]; 5 μM, 20 pmol enzyme): 2.474 µM and 2.381 µM and 2.385 µM
- Percent of Parent Disappearance Individual ([4]; 5 μM, 20 pmol enzyme): −0.257% and 3.52% and 3.37%
- Percent of Parent Disappearance Mean ± SD ([4]; 5 μM, 20 pmol enzyme): 2.21 ± 2.14%
- Percent of Parent Disappearance Mean ± SD [4, 9]: 2.21±2.14%
- Individual Raw Data Observed ([4]; 50 μM, 5 pmol enzyme): 20.88 µM and 21.85 µM and 25.99 µM
- Percent of Parent Disappearance Individual ([4]; 50 μM, 5 pmol enzyme): 3.63% and −0.862% and −20.0%
- Percent of Parent Disappearance Mean ± SD ([4]; 50 μM, 5 pmol enzyme): −5.73 ± 12.5%
- Percent of Parent Disappearance Mean ± SD [4, 10]: 5.73±12.5%
- Individual Raw Data Observed ([4]; 50 μM, 20 pmol enzyme): 21.46 µM and 22.47 µM and 22.35 µM
- Percent of Parent Disappearance Mean ± SD ([4]; 50 μM, 20 pmol enzyme): 2.53 ± 2.43%
- Percent of Parent Disappearance Mean ± SD [4, 11]: 2.53±2.43%
- Individual Raw Data Observed ([5]; 5 μM, 5 pmol enzyme): 2.044 µM and 2.183 µM and 2.216 µM
- Percent of Parent Disappearance Individual ([5]; 5 μM, 5 pmol enzyme): −2.76% and −9.79% and −11.4%
- Percent of Parent Disappearance Mean ± SD ([5]; 5 μM, 5 pmol enzyme): −7.99 ± 4.60%
- Percent of Parent Disappearance Mean ± SD [5, 8]: no disappearance of the substrate was detected
- Individual Raw Data Observed ([5]; 5 μM, 20 pmol enzyme): 2.309 µM and 2.295 µM and 2.254 µM
- Percent of Parent Disappearance Individual ([5]; 5 μM, 20 pmol enzyme): 5.51% and 6.07% and 7.78%
- Percent of Parent Disappearance Mean ± SD ([5]; 5 μM, 20 pmol enzyme): 6.45 ± 1.18%
- Percent of Parent Disappearance Mean ± SD [5, 9]: 6.45±1.18%
- Individual Raw Data Observed ([5]; 50 μM, 5 pmol enzyme): 20.03 μM (2×) and 19.46 μM
- Percent of Parent Disappearance Individual ([5]; 50 μM, 5 pmol enzyme): −5.05% and −5.02% and −2.05%
- Percent of Parent Disappearance Mean ± SD ([5]; 50 μM, 5 pmol enzyme): −4.04 ± 1.72%
- Percent of Parent Disappearance Mean ± SD [5, 10]: no disappearance of the substrate was detected
- Individual Raw Data Observed ([5]; 50 μM, 20 pmol enzyme): 19.6 µM and 20.86 µM and 20.65 µM
- Percent of Parent Disappearance Individual ([5]; 50 μM, 20 pmol enzyme): 11.0% and 5.29% and 6.24%
- Percent of Parent Disappearance Mean ± SD ([5]; 50 μM, 20 pmol enzyme): 7.51 ± 3.06%
- Percent of Parent Disappearance Mean ± SD [5, 11]: 7.51±3.06%
- difference in metabolism in the presence or absence of the inhibitor (LC/MS) [6]: no significant difference in metabolism
- percent metabolized in presence vs absence of inhibitor (unpaired two-tailed t-test) [7]: not different from the percentage of megestrol acetate metabolized in the absence of the inhibitor
- metabolized in pooled human liver microsomes ([7]; human, microsomes, 60 min, pH 7.4): > 20%
